From ChEMBL document CHEMBL1201862, “PubChem BioAssay data set” (2004) come the findings set out here.

Structures are written as SMILES.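 Interpolation was linear, between the two tested concentrations surrounding the appropriate level; five concentrations were tested over 48 hours in 96-well plates. GI50 is the concentration that inhibits growth by half.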 Active and inactive are the calls of the source. Rule as the data show it: active = GI50 up to about 1.1 µM and inactive = higher.

Test systems include ACHN; DU-145; HCT-116; HL-60; HOP-62; Hs-578T; K562; LOX IMVI; M14; MOLT-4; NCI/ADR-RES; OVCAR-3; OVCAR-8; PC-3; SK-MEL-28; SR; SW-620; U-251; A549; UACC-62.
Common to all, as to experiment: growth of human tumour cells (NCI), 48 h

On to `CC1=NN(c2nc(N)nc(/C(C#N)=C\c3csc([N+](=O)[O-])c3)n2)C(C)(C)C1`, for which the GI50 was 35 µM (inactive) in the experiment with ACHN; 33.4 µM (inactive) in the experiment with DU-145; 47.4 µM (inactive) in the experiment with HCT-116; 5.22 µM (inactive) in the experiment with HL-60; 26.6 µM (inactive) in the experiment with HOP-62; 22.5 µM (inactive) in the experiment with Hs-578T. The GI50 was 39.4 µM (inactive) with K562; 71.3 µM (inactive) with LOX IMVI; > 100 µM (inactive) in the experiment with M14; > 100 µM (inactive) in the experiment on MOLT-4; 27 µM (inactive) with NCI/ADR-RES; 26.4 µM (inactive) in the experiment on OVCAR-3. Also, the GI50 with OVCAR-8 was 25.1 µM (inactive); in the experiment on PC-3, 20.6 µM (inactive); in the experiment on SK-MEL-28, 59 µM (inactive); in the experiment on SR, 51.1 µM (inactive); with SW-620, 68.7 µM (inactive); with U-251 it was 19.3 µM (inactive).

In the case of `COc1ccc(N(C(=O)Nc2ccc(Cl)c(Cl)c2)C2c3cccn3C(=O)N2c2ccc(Cl)c(Cl)c2)cc1` (configuration not stated), the GI50 was 80.5 µM (inactive) with A549; > 100 µM (inactive) in the experiment on ACHN; > 100 µM (inactive) in the experiment with DU-145; 17.3 µM (inactive) with HCT-116; 25.1 µM (inactive) in the experiment with HL-60; > 100 µM (inactive) in the experiment on Hs-578T. The GI50 in the experiment on K562 is 13.8 µM (inactive); in the experiment on LOX IMVI, 15.8 µM (inactive); with M14 it was 19.1 µM (inactive); with MOLT-4, 1.54 µM (inactive); with NCI/ADR-RES, > 100 µM (inactive); in the experiment with OVCAR-8, > 100 µM (inactive). Further, the GI50 with PC-3 is 60.4 µM (inactive); in the experiment on SK-MEL-28, > 100 µM (inactive); with SR, 12.4 µM (inactive); in the experiment on SW-620 it was > 100 µM (inactive); in the experiment with U-251 it was > 100 µM (inactive); in the experiment on UACC-62, 41.9 µM (inactive).

With `CCOC(=O)C#Cc1cccc(C#CC(=O)OCC)c1`, the GI50 was 6.53 µM (inactive) in the experiment on A549; 6.03 µM (inactive) with ACHN; 6.52 µM (inactive) in the experiment with DU-145; 2.37 µM (inactive) in the experiment with HCT-116; 1.8 µM (inactive) in the experiment with HL-60; 5.69 µM (inactive) with HOP-62. The GI50 is 9.55 µM (inactive) in the experiment on Hs-578T; 1.91 µM (inactive) in the experiment with K562; 2.07 µM (inactive) in the experiment on LOX IMVI; 2.13 µM (inactive) in the experiment with M14; 6.05 µM (inactive) in the experiment on NCI/ADR-RES; 6.07 µM (inactive) in the experiment on OVCAR-3. The GI50 in the experiment with OVCAR-8 was 6.98 µM (inactive); in the experiment on PC-3, 6.21 µM (inactive); in the experiment on SK-MEL-28 it was 5.33 µM (inactive); in the experiment on SR, 0.506 µM (active); with SW-620 it was 5.25 µM (inactive); in the experiment on U-251, 4.71 µM (inactive). Besides, in the experiment on UACC-62, the GI50 is 4.94 µM (inactive).

Take `CC(C)(C)N/N=C(\C(=O)Nc1ccc([N+](=O)[O-])cc1[N+](=O)[O-])c1nc2ccc([N+](=O)[O-])cc2nc1O`: the GI50 in the experiment on A549 is > 100 µM (inactive); with ACHN it was > 100 µM (inactive); with DU-145 it was > 100 µM (inactive); in the experiment on HCT-116, 68.5 µM (inactive); in the experiment on HL-60, 47.3 µM (inactive); in the experiment with Hs-578T it was 82.6 µM (inactive). The GI50 in the experiment on K562 was 37 µM (inactive); in the experiment on LOX IMVI, 58.7 µM (inactive); in the experiment on M14, > 100 µM (inactive); in the experiment on MOLT-4, 35.2 µM (inactive); with NCI/ADR-RES, > 100 µM (inactive); in the experiment with OVCAR-3 it was > 100 µM (inactive). Further, the GI50 is 48.5 µM (inactive) in the experiment with OVCAR-8; 96.4 µM (inactive) in the experiment with PC-3; > 100 µM (inactive) with SK-MEL-28; 31.3 µM (inactive) in the experiment on SR; > 100 µM (inactive) in the experiment with SW-620; > 100 µM (inactive) in the experiment on U-251. For the same compound, the GI50 in the experiment on UACC-62 was > 100 µM (inactive).

Consider `CC(C)(N)CO[C@H]1C[C@H]2CC[C@@]1(C)C2(C)C`, for which the GI50 in the experiment with A549 was 38.5 µM (inactive); with ACHN, 34.9 µM (inactive); in the experiment on DU-145, 25.9 µM (inactive); in the experiment with HCT-116, 15.9 µM (inactive); with HOP-62, 20 µM (inactive); in the experiment with Hs-578T it was 27.5 µM (inactive). The GI50 in the experiment on K562 is 18.2 µM (inactive); in the experiment on LOX IMVI it was 17.2 µM (inactive); with M14 it was 16 µM (inactive); in the experiment with MOLT-4 it was 26.3 µM (inactive); in the experiment with NCI/ADR-RES it was 32.4 µM (inactive); with OVCAR-3 it was 49.8 µM (inactive). In addition, the GI50 with OVCAR-8 was 20.6 µM (inactive); in the experiment with PC-3 it was 27.1 µM (inactive); with SK-MEL-28, 12.3 µM (inactive); in the experiment with SR it was 11.9 µM (inactive); with SW-620, 23.7 µM (inactive); in the experiment with U-251, 18.1 µM (inactive). Besides, in the experiment on UACC-62, the GI50 was 18.2 µM (inactive).

Turning to `Clc1cc(-c2csc(Cl)c2)cs1`, the GI50 with A549, in the experiment on ACHN, with DU-145, with HCT-116, with HL-60 and in the experiment on Hs-578T was > 100 µM (inactive) each time. For the same compound, the GI50 in the experiment on LOX IMVI, with M14, in the experiment on MOLT-4, in the experiment on NCI/ADR-RES, in the experiment on OVCAR-3 and in the experiment with OVCAR-8 was > 100 µM (inactive) throughout. The GI50 in the experiment with PC-3, with SK-MEL-28, in the experiment on SR, with SW-620, with U-251 and in the experiment on UACC-62 was > 100 µM (inactive) each time.

Consider `c1csc(-c2csc(-c3cccs3)c2)c1`, for which the GI50 is 30.8 µM (inactive) in the experiment with A549; > 100 µM (inactive) in the experiment on ACHN; > 100 µM (inactive) in the experiment with DU-145; 21.9 µM (inactive) with HCT-116; 37.5 µM (inactive) with HL-60; 63.1 µM (inactive) in the experiment with HOP-62. For the same compound, the GI50 in the experiment with Hs-578T is 51.3 µM (inactive); with LOX IMVI, 57.7 µM (inactive); in the experiment on M14 it was 58.1 µM (inactive); in the experiment on MOLT-4, 28.6 µM (inactive); with NCI/ADR-RES, > 100 µM (inactive); in the experiment with OVCAR-3 it was 29.4 µM (inactive). The GI50 is > 100 µM (inactive) with OVCAR-8; 29.7 µM (inactive) with PC-3; > 100 µM (inactive) in the experiment on SK-MEL-28; 23.5 µM (inactive) with SR; 35.9 µM (inactive) in the experiment with SW-620; 77.4 µM (inactive) with U-251. Further, in the experiment with UACC-62, the GI50 is 20.8 µM (inactive).

Consider `COC(=O)c1c(O)ccc2c1c1c(n2Cc2ccc(OC)cc2)C(=O)c2ccccc2C1=O`, for which the GI50 with A549 was 4.91 µM (inactive); with ACHN, 2.62 µM (inactive); with DU-145, 18.2 µM (inactive); in the experiment with HCT-116, 6.3 µM (inactive); with HL-60 it was 0.308 µM (active); in the experiment with HOP-62, 16.3 µM (inactive). For the same compound, the GI50 in the experiment on Hs-578T is 13.9 µM (inactive); with K562 it was 3.28 µM (inactive); with LOX IMVI, 5.85 µM (inactive); in the experiment on M14, 10.7 µM (inactive); in the experiment with MOLT-4 it was 0.139 µM (active); in the experiment with NCI/ADR-RES it was 7.21 µM (inactive). Besides, the GI50 in the experiment with OVCAR-3 is 16.1 µM (inactive); in the experiment on OVCAR-8, 2.4 µM (inactive); with PC-3, 5.2 µM (inactive); in the experiment on SK-MEL-28 it was 17.9 µM (inactive); with SR, 0.251 µM (active); in the experiment with SW-620, 18.6 µM (inactive). In addition, the GI50 with U-251 is 8.67 µM (inactive).

For the compound `COc1ccc(N2C(=O)C3c4[nH]c5ccc(C)cc5c4C4CCC(C(C)C)CC4C3C2=O)cc1` (configuration not stated), the GI50 is > 100 µM (inactive) with A549; > 100 µM (inactive) in the experiment on ACHN; > 100 µM (inactive) in the experiment with DU-145; > 100 µM (inactive) with HCT-116; 45.4 µM (inactive) in the experiment on HOP-62; 57.8 µM (inactive) in the experiment on Hs-578T. Also, the GI50 with K562, in the experiment on LOX IMVI, in the experiment with M14, with MOLT-4, in the experiment on NCI/ADR-RES and in the experiment with OVCAR-3 was > 100 µM (inactive) each time. Moreover, the GI50 in the experiment on OVCAR-8 is > 100 µM (inactive); in the experiment on PC-3, > 100 µM (inactive); in the experiment with SK-MEL-28, > 100 µM (inactive); in the experiment with SR, > 100 µM (inactive); in the experiment on SW-620, > 100 µM (inactive); in the experiment with U-251 it was 47.6 µM (inactive). For the same compound, the GI50 with UACC-62 was > 100 µM (inactive).

Consider `CCCCCCCCCc1cc(=O)c2c(O)cc(O)cc2o1`, for which the GI50 in the experiment on A549 is 18.5 µM (inactive); in the experiment with ACHN, 19 µM (inactive); with DU-145, 20.2 µM (inactive); in the experiment on HCT-116, 21.7 µM (inactive); in the experiment with HL-60 it was 14.3 µM (inactive); in the experiment with HOP-62, 14.8 µM (inactive). Further, the GI50 was 16.7 µM (inactive) in the experiment on Hs-578T; 10.2 µM (inactive) with K562; 21.8 µM (inactive) in the experiment on LOX IMVI; 18.1 µM (inactive) in the experiment on M14; 4.91 µM (inactive) with MOLT-4; 17.6 µM (inactive) in the experiment on NCI/ADR-RES. Besides, the GI50 is 15.7 µM (inactive) with OVCAR-3; 20.2 µM (inactive) in the experiment with OVCAR-8; 18 µM (inactive) with PC-3; 19.2 µM (inactive) with SK-MEL-28; 15.2 µM (inactive) in the experiment with SR; 27.9 µM (inactive) with SW-620. In addition, the GI50 in the experiment on U-251 was 28.6 µM (inactive).
